{"source": "ChEMBL document CHEMBL6074662", "about": "“Antibacterial, Antibiofilm, and Anti-inflammatory Effects of a Novel Thrombin-Derived Peptide in Sepsis Models: Insights into Underlying Mechanisms” (J Med Chem, 2024)", "key": {"Staphylococcus aureus [1]": {"tested_on": "Staphylococcus aureus", "assay": "Bactericidal activity against methicillin-resistant Staphylococcus aureus CCARM 3089 at 0.5 to 2 uM incubated for 12 hrs by time-kill assay", "format": "functional, organism-based", "conditions": "dose 0.5-2 µM"}, "Staphylococcus aureus [2]": {"tested_on": "Staphylococcus aureus", "assay": "Synergistic bactericidal activity against methicillin-resistant Staphylococcus aureus CCARM 3089 at 0.5 to 2 uM incubated for 12 hrs in presence of oxacillin by time-kill assay", "format": "functional, organism-based", "conditions": "dose 0.5-2 µM"}, "Escherichia coli [3]": {"tested_on": "Escherichia coli", "assay": "Antibacterial activity against Escherichia coli KCTC 1682 assessed as zone of clearance incubated for 4 hrs in presence of proteinase K by radical diffusion assay", "format": "functional, organism-based"}, "Escherichia coli [4]": {"tested_on": "Escherichia coli", "assay": "Antibacterial activity against Escherichia coli KCTC 1682 assessed as zone of clearance incubated for 4 hrs in presence of alpha-chymotrypsin by radical diffusion assay", "format": "functional, organism-based"}, "Mus musculus [5]": {"tested_on": "Mus musculus", "assay": "(§1) Antiseptic activity in sepsis shock ICR mouse model infected with carbapenem-resistant Acinetobacter baumannii assessed as reduction in bacterial count in kidney at 1 mg/kg, ip pre-infected with bacteria followed by compound administration 3 hrs post-infection measured after 16 hrs relative to control", "format": "functional", "parameters": "scale not given: the % may be the effect or the level left"}, "Mus musculus [6]": {"tested_on": "Mus musculus", "assay": "as §1, with “lungs” for “kidney”", "format": "functional", "parameters": "scale not given: the % may be the effect or the level left"}, "Mus musculus [7]": {"tested_on": "Mus musculus", "assay": "Antiseptic activity in sepsis shock ICR mouse model infected with carbapenem-resistant Acinetobacter baumannii assessed as decrease in AST level in serum at 1 mg/kg, ip pretreated with compound for 1 hr followed by bacterial infection measured after 16 hrs relative to control", "format": "functional", "parameters": "scale not given: the % may be the effect or the level left", "conditions": "time 17 hrs"}, "Mus musculus [8]": {"tested_on": "Mus musculus", "assay": "Antiseptic activity in sepsis shock ICR mouse model infected with carbapenem-resistant Acinetobacter baumannii assessed as reduction in serum IL-6 level at 1 mg/kg, ip pre-infected with bacteria followed by compound administration 1 hr post-infection measured after 16 hrs relative to control", "format": "functional", "parameters": "scale not given: the % may be the effect or the level left"}, "Pseudomonas aeruginosa [9]": {"tested_on": "Pseudomonas aeruginosa", "assay": "Bactericidal activity against multidrug-resistant Pseudomonas aeruginosa CCARM 2095 at 0.5 to 2 uM incubated for 12 hrs by time-kill assay", "format": "functional, organism-based", "conditions": "dose 0.5-2 µM"}, "Pseudomonas aeruginosa [10]": {"tested_on": "Pseudomonas aeruginosa", "assay": "Synergistic bactericidal activity against multidrug-resistant Pseudomonas aeruginosa CCARM 2095 at 0.5 to 2 uM incubated for 12 hrs in presence of oxacillin by time-kill assay", "format": "functional, organism-based", "conditions": "dose 0.5-2 µM"}, "Lipopolysaccharide (LPS) [11]": {"tested_on": "Lipopolysaccharide (LPS)", "assay": "Displacement of BODIPY-TR-cadaverine from Escherichia coli 0111:B4 LPS at 8 uM incubated for 30 mins by fluorescence based assay relative to control"}, "Lipopolysaccharide (LPS) [12]": {"tested_on": "Lipopolysaccharide (LPS)", "assay": "Displacement of BODIPY-TR-cadaverine from cell-free LPS (unknown origin) at 8 uM incubated for 30 mins by fluorescence based assay relative to control"}, "Homo sapiens": {"species": "Homo sapiens", "assay": "Binding affinity to CM5 chip-immobilized TLR4/MD2 (unknown origin) complex by SPR analysis"}, "Mus musculus [13]": {"tested_on": "Mus musculus", "assay": "Antiseptic activity in sepsis shock ICR mouse model infected with carbapenem-resistant Acinetobacter baumannii assessed as decrease in ALT level in serum at 1 mg/kg, ip pretreated with compound for 1 hr followed by bacterial infection measured after 16 hrs relative to control", "format": "functional", "parameters": "scale not given: the % may be the effect or the level left", "conditions": "time 17 hrs"}, "Lipopolysaccharide (LPS) [14]": {"tested_on": "Lipopolysaccharide (LPS)", "assay": "Displacement of BODIPY-TR-cadaverine from cell-free LPS (unknown origin) incubated for 30 mins by fluorescence based assay", "conditions": "dose <= 32.0 µM"}, "RAW264.7": {"tested_on": "RAW264.7", "assay": "Displacement of FITC-labeled LPS pre-bound to surface receptors of mouse RAW264.7 cells incubated for 1 hr by flow cytometry", "format": "cell-based"}, "Mus musculus [15]": {"tested_on": "Mus musculus", "assay": "Antiseptic activity in sepsis shock ICR mouse model infected with carbapenem-resistant Acinetobacter baumannii assessed as reduction in bacterial count in kidney at 1 mg/kg, ip pretreated with compound for 1 hr followed by bacterial infection measured after 16 hrs relative to control", "format": "functional", "parameters": "scale not given: the % may be the effect or the level left", "conditions": "time 17 hrs"}, "[16]": {"target": "T1, Toll-like receptor 4 (Mus musculus) (UniProt Q9QUK6)", "T1 sequence (whole entry)": "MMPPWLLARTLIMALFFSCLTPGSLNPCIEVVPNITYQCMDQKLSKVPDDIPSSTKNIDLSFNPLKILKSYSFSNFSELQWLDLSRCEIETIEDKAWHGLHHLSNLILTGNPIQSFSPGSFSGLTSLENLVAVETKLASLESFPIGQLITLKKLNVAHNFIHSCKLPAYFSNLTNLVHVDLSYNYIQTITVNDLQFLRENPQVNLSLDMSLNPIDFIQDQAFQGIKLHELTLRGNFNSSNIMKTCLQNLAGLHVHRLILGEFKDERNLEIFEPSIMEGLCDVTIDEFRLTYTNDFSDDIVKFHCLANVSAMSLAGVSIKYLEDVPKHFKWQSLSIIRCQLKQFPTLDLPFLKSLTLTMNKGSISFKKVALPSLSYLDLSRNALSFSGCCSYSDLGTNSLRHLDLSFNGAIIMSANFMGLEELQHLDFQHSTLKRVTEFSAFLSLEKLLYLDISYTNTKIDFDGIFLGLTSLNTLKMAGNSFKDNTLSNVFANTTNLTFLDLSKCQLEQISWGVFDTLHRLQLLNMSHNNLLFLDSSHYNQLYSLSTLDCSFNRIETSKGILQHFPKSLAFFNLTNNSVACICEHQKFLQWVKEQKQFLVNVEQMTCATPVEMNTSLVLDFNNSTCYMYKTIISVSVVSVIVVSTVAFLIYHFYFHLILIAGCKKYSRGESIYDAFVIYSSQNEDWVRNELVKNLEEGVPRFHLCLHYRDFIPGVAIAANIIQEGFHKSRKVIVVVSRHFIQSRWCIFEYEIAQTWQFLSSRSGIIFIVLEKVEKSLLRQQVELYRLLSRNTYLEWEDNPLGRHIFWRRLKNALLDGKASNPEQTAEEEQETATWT", "assay": "Inhibition of LPS-induced TLR4 activation in mouse RAW264.7 cells assessed as decrease in JNK phosphorylation at 2 uM pretreated for 1 hr followed by LPS treatment for 30 mins by Western blot analysis relative to control", "format": "cell-based", "conditions": "time 90.0 min"}, "Mus musculus [17]": {"tested_on": "Mus musculus", "assay": "Antiseptic activity in sepsis shock ICR mouse model infected with carbapenem-resistant Acinetobacter baumannii assessed as reduction in bacterial count in liver at 1 mg/kg, ip pretreated with compound for 3 hrs followed by bacterial infection measured after 16 hrs relative to control", "format": "functional", "parameters": "scale not given: the % may be the effect or the level left", "conditions": "time 19 hrs"}, "Mus musculus [18]": {"tested_on": "Mus musculus", "assay": "Antiseptic activity in sepsis shock ICR mouse model infected with carbapenem-resistant Acinetobacter baumannii assessed as decrease in IL-1beta level in serum at 1 mg/kg, ip pretreated with compound for 1 hr followed by bacterial infection measured after 16 hrs relative to control", "format": "functional", "parameters": "scale not given: the % may be the effect or the level left", "conditions": "time 17 hrs"}, "Acinetobacter baumannii": {"tested_on": "Acinetobacter baumannii", "assay": "Antibacterial activity against carbapenem-resistant Acinetobacter baumannii 1707 incubated for 24 hrs by CLSI based broth microdilution method", "format": "functional, organism-based"}, "Mus musculus [19]": {"tested_on": "Mus musculus", "assay": "Antiseptic activity in sepsis shock ICR mouse model infected with carbapenem-resistant Acinetobacter baumannii assessed as reduction in serum IL-6 level at 1 mg/kg, ip pretreated with compound for 3 hrs followed by bacterial infection measured after 16 hrs relative to control", "format": "functional", "parameters": "scale not given: the % may be the effect or the level left", "conditions": "time 19 hrs"}, "Mus musculus [20]": {"tested_on": "Mus musculus", "assay": "Antiseptic activity in sepsis shock ICR mouse model infected with carbapenem-resistant Acinetobacter baumannii assessed as reduction in bacterial count in kidney at 1 mg/kg, ip pretreated with compound for 3 hrs followed by bacterial infection measured after 16 hrs relative to control", "format": "functional", "parameters": "scale not given: the % may be the effect or the level left", "conditions": "time 19 hrs"}, "[21]": {"target": "T1, Toll-like receptor 4 (Mus musculus)", "assay": "Inhibition of LPS-induced TLR4 activation in mouse RAW264.7 cells assessed as decrease in ERK phosphorylation at 2 uM pretreated for 1 hr followed by LPS treatment for 30 mins by Western blot analysis relative to control", "format": "cell-based", "conditions": "time 90.0 min"}, "Lipopolysaccharide (LPS) [22]": {"tested_on": "Lipopolysaccharide (LPS)", "assay": "Displacement of BODIPY-TR-cadaverine from cell-free LPS (unknown origin) at 16 uM incubated for 30 mins by fluorescence based assay relative to control"}}, "note": "The source made the active and inactive calls. No cut-off for these calls is given here."}
{"substance": "H-GVFRLKKWIKKVIKKWGK-NH2", "values": [{"measurement": "Activity", "setting": "Staphylococcus aureus [1]", "result": "inactive"}, {"measurement": "Activity", "setting": "Staphylococcus aureus [2]", "result": "Active"}, {"measurement": "Activity", "setting": "Escherichia coli [3]", "result": "inactive"}, {"measurement": "Activity", "setting": "Escherichia coli [4]", "result": "inactive"}]}
{"substance": "H-GVFRLKKWLKKVKKWGK-NH2", "values": [{"measurement": "Activity", "setting": "Mus musculus [5]", "result": 91.8, "unit": "%"}, {"measurement": "Activity", "setting": "Mus musculus [6]", "result": 25, "unit": "%"}, {"measurement": "Activity", "setting": "Mus musculus [7]", "result": 31.8, "unit": "%"}, {"measurement": "Activity", "setting": "Mus musculus [8]", "result": 97.9, "unit": "%"}, {"measurement": "Activity", "setting": "Pseudomonas aeruginosa [9]", "result": "inactive"}, {"measurement": "Activity", "setting": "Pseudomonas aeruginosa [10]", "result": "Active"}, {"measurement": "Activity", "setting": "Lipopolysaccharide (LPS) [11]", "result": 38, "unit": "%"}, {"measurement": "Activity", "setting": "Lipopolysaccharide (LPS) [12]", "result": 56, "unit": "%"}, {"measurement": "Activity", "setting": "Homo sapiens", "result": "9.4 10^-7M"}, {"measurement": "Activity", "setting": "Mus musculus [13]", "result": 67.8, "unit": "%"}, {"measurement": "Activity", "setting": "Lipopolysaccharide (LPS) [14]", "result": "Dose-dependent-effect; Activity Similar To Ll-37"}, {"measurement": "Activity", "setting": "RAW264.7", "result": "Active; Activity Similar To Ll-37"}, {"measurement": "Activity", "setting": "Mus musculus [15]", "result": 99.6, "unit": "%"}, {"measurement": "inhibition", "setting": "[16]", "result": 52, "unit": "%"}, {"measurement": "Activity", "setting": "Mus musculus [17]", "result": 99.4, "unit": "%"}, {"measurement": "Activity", "setting": "Mus musculus [18]", "result": 68.7, "unit": "%"}, {"measurement": "Activity", "setting": "Acinetobacter baumannii", "result": "Active"}, {"measurement": "Activity", "setting": "Mus musculus [19]", "result": 99.9, "unit": "%"}, {"measurement": "Activity", "setting": "Mus musculus [20]", "result": 98.5, "unit": "%"}, {"measurement": "inhibition", "setting": "[21]", "result": 27, "unit": "%"}, {"measurement": "Activity", "setting": "Lipopolysaccharide (LPS) [22]", "result": 80, "unit": "%"}]}
